In patent EP4745135A1 (Gluetacs Therapeutics (Shanghai) Co., Ltd., priority 2023, dated 2025):

Key:
[1] = biological target: T1, IKZF3 (Homo sapiens, UniProt Q96SW2+Q9UKT9); assay: Western blot, degradation of substrate protein in hPBMCs; format: cell-based; conditions: 24 hours treatment, compounds at 50 nM and 500 nM (concentration behind the class not stated)
T1 construct: effects of the compounds of the present disclosure on the expression of target proteins in cells; endogenous in cells; host or cells: human PBMCs (Milecell Biotechnologies)

[2] = biological target: T2, IKZF1 (Homo sapiens, UniProt Q13422+Q96SW2); assay: as above; format: cell-based; conditions: 24 hours treatment, compounds at 50 nM and 500 nM (concentration behind the class not stated)
T2 construct: effects of the compounds of the present disclosure on the expression of target proteins in cells; endogenous in cells; host or cells: human PBMCs (Milecell Biotechnologies)

[3] = biological target: T3, WEE1 (Homo sapiens, UniProt P30291+Q96SW2); assay: as above; format: cell-based; conditions: 24 hours treatment, compounds at 50 nM and 500 nM (concentration behind the class not stated)
T3 construct: effects of the compounds of the present disclosure on the expression of target proteins in cells; endogenous in cells; host or cells: human PBMCs (Milecell Biotechnologies)

[4] = biological target: T4, IKZF2 (Homo sapiens, UniProt Q96SW2+Q9UKS7); assay: as above; format: cell-based; conditions: 24 hours treatment, compounds at 50 nM and 500 nM (concentration behind the class not stated)
T4 construct: effects of the compounds of the present disclosure on the expression of target proteins in cells; endogenous in cells; host or cells: human PBMCs (Milecell Biotechnologies)

[5] = biological target: T5, CK1α (Homo sapiens, UniProt P48729+Q96SW2); assay: as above; format: cell-based; conditions: 24 hours treatment, compounds at 50 nM and 500 nM (concentration behind the class not stated)
T5 construct: effects of the compounds of the present disclosure on the expression of target proteins in cells; endogenous in cells; host or cells: human PBMCs (Milecell Biotechnologies)

[6] = system: GSPT1; assay: as above; format: cell-based, Human; conditions: 24 hours treatment, compounds at 50 nM and 500 nM (concentration behind the class not stated)
[7] = system: Human myeloid monocytic leukemia cell (MV-4-11); assay: Tumor cell proliferation inhibition (CellTiter-Meiluncell luminescent cell viability assay); conditions: MV4-11, 96 h; for inhibition at 0.01 µM: read-out: Inhibition Rate at 10 nM (%); for inhibition at 0.5 µM: read-out: Inhibition Rate at 500 nM (%)
[8] = system: Human acute myeloid leukemia cell line: Kasumi-1; assay: as above; conditions: Kasumi 1, 96 h; for inhibition at 0.01 µM: read-out: Inhibition Rate at 10 nM (%); for inhibition at 0.5 µM: read-out: Inhibition Rate at 500 nM (%)
[9] = system: Human T cell acute lymphoblastic leukemia cell (CCRF-CEM); assay: as above; conditions: 96 h; for inhibition at 0.01 µM: read-out: Inhibition Rate at 10 nM (%); for inhibition at 0.5 µM: read-out: Inhibition Rate at 500 nM (%)
[10] = system: Human acute T lymphocytic leukemia cell (Molt4); assay: as above; conditions: MOLT-4, 96 h; for inhibition at 0.01 µM: read-out: Inhibition Rate at 10 nM (%); for inhibition at 0.5 µM: read-out: Inhibition Rate at 500 nM (%)
Method: (§1) The tumor cells used herein were cultured in a cell culture medium listed in table 2 at 37°C in an incubator with 5% CO2. Prior to experimentation, all cell lines used were correctly identified by STR profiling, and tested negative for mycoplasma contamination using a mycoplasma detection kit through routine screenings.
(§2) The IC50 values of the compounds of the present disclosure (including the compounds in Table 1 and Examples) were determined using the CellTiter-Meiluncell Luminescent Cell Viability Assay Kit from Dalian Meilun Biotech Co., Ltd. The detailed procedure is as follows: Tumor cells were seeded in 96-well cell culture plates at the densities specified in Table 3. On the following day, the test compounds of the present disclosure were subjected to serial dilution. The dilution can be performed according to one of the following two methods: • (1) The first dilution method: The test compounds of the present disclosure (including the compounds in Table 1 and Examples) were subjected to 5-fold serial dilutions starting from a highest concentration of 2000 µM, resulting in a total of 9 concentrations from high to low (2000, 400, 80, 16, 3.2, 0.64, 0.128, 0.0256, 0.00512 µM). Subsequently, 0.5 µL of the test compound dilution was transferred into the 96-well plate containing the cells, with each well containing 100 µL of cell culture medium. […] Into the 96-well plate, the diluted test compounds and corresponding detection reagents were added, resulting in final test compound concentrations of 500 nM and 10 nM, respectively. The experimental procedure is described below using the diluted 2 µM test compound as an example.
(§3) 0.5 µL of the aforementioned diluted compound of the present disclosure (including the compounds in Table 1 and Examples) was added to the seeded cells in 100 µL of medium, yielding a final test compound concentration of 10 nM. After the cells were treated with the compounds of the present disclosure for a specified period, the cell viability assay reagent was added to the culture medium according to the kit's instructions to determine cell viability. […] All controls were treated using the same procedure as the compounds of the present disclosure. The growth inhibition curves for the compounds of the present disclosure were plotted using Prism GraphPad software, and the IC50 values were calculated therefrom.

[11] = system: Human breast cancer cell (MCF-7); assay: as above; conditions: MCF7, 96 h; for inhibition at 0.01 µM: read-out: Inhibition Rate at 10 nM (%); for inhibition at 0.5 µM: read-out: Inhibition Rate at 500 nM (%)
Method: as §1, §2, §3

[12] = system: Human T lymphocytic leukemia cell line: Jurkat; assay: as above; conditions: 96 h; for inhibition at 0.01 µM: read-out: Inhibition Rate at 10 nM (%); for inhibition at 0.5 µM: read-out: Inhibition Rate at 500 nM (%)
Method: as §1, §2, §3

[13] = biological target: T6, human Cereblon WT GST-tagged protein (Homo sapiens, UniProt Q96SW2); assay: CRBN-binding affinity, HTRF (CEREBLON BINDING kit); conditions: for inhibition at 0.5 µM: read-out: Inhibition Rate at 0.5 µM (%); for inhibition at 2 µM: read-out: Inhibition Rate at 2 µM (%)
T6 construct: purchased CISBIO 64BDCRBNPEH

[14] = system: Human multiple myeloma peripheral blood B lymphocyte cell (RPMI-8226); assay: Tumor cell proliferation inhibition (CellTiter-Meiluncell luminescent cell viability assay); conditions: RPMI-8226, 96 h; for inhibition at 0.01 µM: read-out: Inhibition Rate at 10 nM (%); for inhibition at 0.5 µM: read-out: Inhibition Rate at 500 nM (%)
[15] = system: Human multiple myeloma cell (MM.1S); assay: as above; conditions: for inhibition at 0.01 µM / inhibition at 0.5 µM: Homo sapiens, MM1.S, 96 h; for inhibition at 0.01 µM: read-out: Inhibition Rate at 10 nM (%); for Inhibition Rate at 500 nM (%): MM.1S, 96 hours; for inhibition at 0.5 µM: read-out: Inhibition Rate at 500 nM (%)

T6 sequence (Q96SW2 whole entry): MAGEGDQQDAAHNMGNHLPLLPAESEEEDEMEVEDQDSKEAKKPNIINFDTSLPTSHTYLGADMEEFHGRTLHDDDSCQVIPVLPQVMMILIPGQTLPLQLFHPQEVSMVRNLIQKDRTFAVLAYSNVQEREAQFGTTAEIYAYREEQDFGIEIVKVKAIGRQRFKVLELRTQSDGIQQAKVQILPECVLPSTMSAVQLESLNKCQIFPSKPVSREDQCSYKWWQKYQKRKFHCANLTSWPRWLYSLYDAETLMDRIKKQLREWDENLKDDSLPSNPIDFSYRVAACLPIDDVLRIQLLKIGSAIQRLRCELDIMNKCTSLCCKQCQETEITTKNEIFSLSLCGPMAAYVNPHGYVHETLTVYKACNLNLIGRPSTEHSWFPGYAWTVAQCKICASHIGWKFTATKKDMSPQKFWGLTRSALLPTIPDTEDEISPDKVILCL
T3 sequence (P30291 whole entry): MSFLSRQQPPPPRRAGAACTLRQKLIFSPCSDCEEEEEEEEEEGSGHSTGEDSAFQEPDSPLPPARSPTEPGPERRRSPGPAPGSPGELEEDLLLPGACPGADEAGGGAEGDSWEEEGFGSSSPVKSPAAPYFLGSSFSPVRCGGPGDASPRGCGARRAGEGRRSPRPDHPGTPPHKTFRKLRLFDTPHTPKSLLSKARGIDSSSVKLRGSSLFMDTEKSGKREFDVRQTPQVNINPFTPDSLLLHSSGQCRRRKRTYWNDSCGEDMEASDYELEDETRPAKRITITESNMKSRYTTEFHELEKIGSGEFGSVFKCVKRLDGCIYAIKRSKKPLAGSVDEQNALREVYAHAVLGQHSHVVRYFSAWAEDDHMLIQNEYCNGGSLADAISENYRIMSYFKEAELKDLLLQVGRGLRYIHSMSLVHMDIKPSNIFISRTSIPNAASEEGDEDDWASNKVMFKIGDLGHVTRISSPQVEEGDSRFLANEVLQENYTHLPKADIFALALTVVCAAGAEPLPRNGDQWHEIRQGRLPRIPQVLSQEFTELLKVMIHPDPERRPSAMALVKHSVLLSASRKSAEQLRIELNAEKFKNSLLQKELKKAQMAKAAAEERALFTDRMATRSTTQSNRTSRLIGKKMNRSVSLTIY
T3 sequence (Q96SW2 whole entry): as the sequence (Q96SW2 whole entry) above
T3 sequence (Q16531 whole entry partner): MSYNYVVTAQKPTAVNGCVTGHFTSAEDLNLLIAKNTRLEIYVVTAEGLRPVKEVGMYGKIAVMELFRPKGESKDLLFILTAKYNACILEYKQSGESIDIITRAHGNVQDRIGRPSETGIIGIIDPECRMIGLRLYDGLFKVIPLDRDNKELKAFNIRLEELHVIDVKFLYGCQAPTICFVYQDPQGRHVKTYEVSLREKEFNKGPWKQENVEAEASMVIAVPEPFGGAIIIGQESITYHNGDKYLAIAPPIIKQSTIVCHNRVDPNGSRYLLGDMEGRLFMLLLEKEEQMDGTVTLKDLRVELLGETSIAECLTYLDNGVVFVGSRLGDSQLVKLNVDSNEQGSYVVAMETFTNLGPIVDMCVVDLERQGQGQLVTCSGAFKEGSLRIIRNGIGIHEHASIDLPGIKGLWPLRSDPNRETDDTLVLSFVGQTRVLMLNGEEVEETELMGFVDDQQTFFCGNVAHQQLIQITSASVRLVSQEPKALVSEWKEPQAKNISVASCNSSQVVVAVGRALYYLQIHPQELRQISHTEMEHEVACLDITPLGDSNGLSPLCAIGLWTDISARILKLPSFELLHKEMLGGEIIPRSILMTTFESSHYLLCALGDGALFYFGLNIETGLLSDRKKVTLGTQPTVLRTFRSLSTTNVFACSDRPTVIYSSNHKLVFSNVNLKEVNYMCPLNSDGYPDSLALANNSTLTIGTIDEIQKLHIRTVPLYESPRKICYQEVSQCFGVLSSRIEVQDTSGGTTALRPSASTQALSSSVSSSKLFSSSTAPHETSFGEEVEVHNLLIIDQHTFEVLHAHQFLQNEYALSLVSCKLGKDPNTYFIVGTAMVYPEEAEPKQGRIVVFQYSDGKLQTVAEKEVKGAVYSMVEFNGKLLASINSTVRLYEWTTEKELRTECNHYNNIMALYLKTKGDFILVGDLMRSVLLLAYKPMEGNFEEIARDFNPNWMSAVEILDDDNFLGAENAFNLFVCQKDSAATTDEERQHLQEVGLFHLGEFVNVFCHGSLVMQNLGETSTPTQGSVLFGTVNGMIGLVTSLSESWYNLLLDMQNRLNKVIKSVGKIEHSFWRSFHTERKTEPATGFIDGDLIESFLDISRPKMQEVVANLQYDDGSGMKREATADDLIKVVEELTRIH
T2 sequence (Q13422 whole entry): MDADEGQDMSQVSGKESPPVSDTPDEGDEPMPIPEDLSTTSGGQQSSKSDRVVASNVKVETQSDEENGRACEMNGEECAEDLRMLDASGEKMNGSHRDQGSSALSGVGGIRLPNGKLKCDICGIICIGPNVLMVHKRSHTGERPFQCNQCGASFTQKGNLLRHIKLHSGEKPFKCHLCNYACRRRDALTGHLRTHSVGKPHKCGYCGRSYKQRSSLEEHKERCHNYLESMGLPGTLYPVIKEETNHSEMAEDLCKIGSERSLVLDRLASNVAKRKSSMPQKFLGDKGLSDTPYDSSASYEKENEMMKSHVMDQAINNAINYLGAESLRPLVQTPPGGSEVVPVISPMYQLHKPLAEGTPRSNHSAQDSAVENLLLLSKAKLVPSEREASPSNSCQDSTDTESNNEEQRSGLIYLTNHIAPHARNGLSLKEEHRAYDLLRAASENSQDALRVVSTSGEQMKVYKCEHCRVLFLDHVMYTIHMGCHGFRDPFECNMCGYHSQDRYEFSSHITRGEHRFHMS
T2 sequence (Q96SW2 whole entry): as the sequence (Q96SW2 whole entry) above
T2 sequence (Q16531 whole entry partner): as the sequence (Q16531 whole entry partner) above
T1 sequence (Q9UKT9 whole entry): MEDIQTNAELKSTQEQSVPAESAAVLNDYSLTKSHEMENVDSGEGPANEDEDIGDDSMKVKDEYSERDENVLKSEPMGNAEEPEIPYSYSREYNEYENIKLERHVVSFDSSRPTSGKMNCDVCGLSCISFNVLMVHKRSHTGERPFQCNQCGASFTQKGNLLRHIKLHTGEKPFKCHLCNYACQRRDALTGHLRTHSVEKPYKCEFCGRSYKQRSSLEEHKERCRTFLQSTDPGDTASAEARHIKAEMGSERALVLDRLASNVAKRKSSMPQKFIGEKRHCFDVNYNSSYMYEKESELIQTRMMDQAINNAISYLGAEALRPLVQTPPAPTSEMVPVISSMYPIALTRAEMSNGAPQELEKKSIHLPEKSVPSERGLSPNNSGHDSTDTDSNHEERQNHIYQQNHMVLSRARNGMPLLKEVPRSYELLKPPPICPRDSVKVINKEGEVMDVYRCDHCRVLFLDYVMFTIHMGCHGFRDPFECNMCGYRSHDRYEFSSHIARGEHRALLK
T1 sequence (Q96SW2 whole entry): as the sequence (Q96SW2 whole entry) above
T1 sequence (Q16531 whole entry partner): as the sequence (Q16531 whole entry partner) above
T5 sequence (P48729 whole entry): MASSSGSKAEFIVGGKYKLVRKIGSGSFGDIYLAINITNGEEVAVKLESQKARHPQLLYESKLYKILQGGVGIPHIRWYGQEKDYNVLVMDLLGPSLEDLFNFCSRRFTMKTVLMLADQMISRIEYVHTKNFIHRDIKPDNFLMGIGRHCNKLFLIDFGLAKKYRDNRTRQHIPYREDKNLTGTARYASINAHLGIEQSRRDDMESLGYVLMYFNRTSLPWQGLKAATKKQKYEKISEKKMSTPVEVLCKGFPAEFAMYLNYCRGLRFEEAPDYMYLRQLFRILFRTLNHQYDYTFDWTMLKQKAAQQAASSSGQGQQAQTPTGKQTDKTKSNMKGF
T5 sequence (Q96SW2 whole entry): as the sequence (Q96SW2 whole entry) above
T5 sequence (Q16531 whole entry partner): as the sequence (Q16531 whole entry partner) above
T4 sequence (Q9UKS7 whole entry): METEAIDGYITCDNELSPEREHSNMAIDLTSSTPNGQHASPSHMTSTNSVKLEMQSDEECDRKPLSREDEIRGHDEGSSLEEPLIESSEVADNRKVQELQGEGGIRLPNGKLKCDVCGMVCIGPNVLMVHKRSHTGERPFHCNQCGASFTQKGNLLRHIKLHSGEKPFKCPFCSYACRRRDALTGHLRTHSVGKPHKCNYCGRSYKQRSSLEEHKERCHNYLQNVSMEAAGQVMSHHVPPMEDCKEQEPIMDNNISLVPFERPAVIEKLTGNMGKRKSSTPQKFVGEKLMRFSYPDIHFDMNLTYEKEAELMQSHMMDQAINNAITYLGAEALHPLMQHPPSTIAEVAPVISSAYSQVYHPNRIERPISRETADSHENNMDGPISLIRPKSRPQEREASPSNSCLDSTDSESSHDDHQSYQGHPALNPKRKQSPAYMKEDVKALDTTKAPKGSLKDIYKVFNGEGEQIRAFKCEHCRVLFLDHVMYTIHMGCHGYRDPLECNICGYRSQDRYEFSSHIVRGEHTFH
T4 sequence (Q96SW2 whole entry): as the sequence (Q96SW2 whole entry) above
T4 sequence (Q16531 whole entry partner): as the sequence (Q16531 whole entry partner) above

inhibition at 0.5 µM [13]	inhibition at 2 µM [13]	SMILES	IKZF3 substrate protein remaining % [1]	IKZF 1 substrate protein remaining % [2]	Wee1 substrate protein remaining % [3]	IKZF2 substrate protein remaining % [4]	CK1α substrate protein remaining % [5]	GSPT1 substrate protein remaining % [6]	inhibition at 0.01 µM [7]	inhibition at 0.5 µM [7]	inhibition at 0.01 µM [8]	inhibition at 0.5 µM [8]	inhibition at 0.01 µM [9]	inhibition at 0.5 µM [9]	inhibition at 0.01 µM [10]	inhibition at 0.5 µM [10]	inhibition at 0.01 µM [12]	inhibition at 0.5 µM [12]	inhibition at 0.01 µM [14]	inhibition at 0.5 µM [14]	further results
40 to 53%	60 to 80%	O=C1CCC(N2Cc3cc(CN4CCC(c5cccc(F)c5Cl)CC4)ccc3C2=S)C(=O)N1 (stereo not shown) [GT-08330, 3-(5-((4-(2-chloro-3-fluorophenyl)piperidin-1-yl)methyl)-1-thioxoisoindolin-2-yl)piperidine-2,6-dione]	A (0% ≤ substrate protein remaining % ≤ 80%)	A (0% ≤ substrate protein remaining % ≤ 80%)	A (0% ≤ substrate protein remaining % ≤ 80%)	A (0% ≤ substrate protein remaining % ≤ 80%)	A (0% ≤ substrate protein remaining % ≤ 80%)	A (0% ≤ substrate protein remaining % ≤ 80%)	10 to 18%	80 to 100%	5 to 10%	80 to 100%	5 to 10%	80 to 100%	-5 to 0%	80 to 100%	-5 to 0%	70 to 80%	10 to 20%	70 to 80%	inhibition at 0.01 µM [11]: 10 to 20%; inhibition at 0.5 µM [11]: 50 to 60%; inhibition at 0.01 µM [15]: 20 to 30%; inhibition at 0.5 µM [15]: 80 to 100%
40 to 53%	80 to 100%	O=C1CCC(N2Cc3cc(CN4CCC(c5cccs5)CC4)ccc3C2=S)C(=O)N1 (stereo not shown) [GT-08329, 3-(5-((4-(thiophen-2-yl)piperidin-1-yl)methyl)-1-thioxoisoindolin-2-yl)piperidine-2,6-dione]	B (80%< substrate protein remaining %≤ 100%)	B (80%< substrate protein remaining %≤ 100%)	A (0% ≤ substrate protein remaining % ≤ 80%)	B (80%< substrate protein remaining %≤ 100%)	A (0% ≤ substrate protein remaining % ≤ 80%)	A (0% ≤ substrate protein remaining % ≤ 80%)	-5 to 0%	80 to 100%	5 to 10%	80 to 100%	10 to 20%	80 to 100%	10 to 20%	80 to 100%	10 to 20%	70 to 80%	10 to 20%	70 to 80%	inhibition at 0.01 µM [15]: 10 to 20%; Inhibition Rate at 500 nM (%) [15]: la10

The next lines start with the compound.

SMILES	inhibition at 0.5 µM [13]	inhibition at 2 µM [13]	IKZF3 substrate protein remaining % [1]	IKZF 1 substrate protein remaining % [2]	Wee1 substrate protein remaining % [3]	IKZF2 substrate protein remaining % [4]	CK1α substrate protein remaining % [5]	GSPT1 substrate protein remaining % [6]	inhibition at 0.01 µM [7]	inhibition at 0.5 µM [7]	inhibition at 0.01 µM [8]	inhibition at 0.5 µM [8]	inhibition at 0.01 µM [9]	inhibition at 0.5 µM [9]	inhibition at 0.01 µM [10]	inhibition at 0.5 µM [10]	inhibition at 0.01 µM [12]	inhibition at 0.5 µM [12]	inhibition at 0.01 µM [14]	inhibition at 0.5 µM [14]	further results
O=C1CCC(N2Cc3cc(CN4CC=C(c5ccsc5)CC4)ccc3C2=S)C(=O)N1 (stereo not shown) [GT-08172, 3-(5-((4-(thiophen-3-yl)-3,6-dihydropyridin-1(2H)-yl)methyl)-1-thioxoisoindolin-2-yl)piperidine-2,6-dione]	80 to 100%	80 to 100%	A (0% ≤ substrate protein remaining % ≤ 80%)	A (0% ≤ substrate protein remaining % ≤ 80%)	A (0% ≤ substrate protein remaining % ≤ 80%)	A (0% ≤ substrate protein remaining % ≤ 80%)	A (0% ≤ substrate protein remaining % ≤ 80%)	A (0% ≤ substrate protein remaining % ≤ 80%)	60 to 80%	80 to 100%	20 to 30%	80 to 100%	60 to 70%	80 to 100%	60 to 70%	80 to 100%	50 to 60%	80 to 100%	20 to 30%	80 to 100%	inhibition at 0.01 µM [11]: 50 to 60%; inhibition at 0.5 µM [11]: 70 to 80%; inhibition at 0.01 µM [15]: 40 to 50%; Inhibition Rate at 500 nM (%) [15]: la10
O=C1CCC(N2Cc3cc(CN4CCN(Cc5ccccc5-c5ccc(Cl)cc5)CC4)ccc3C2=S)C(=O)N1 (stereo not shown) [GT-08166, 3-(5-((4-((4'-chloro-[1,1'-biphenyl]-2-yl)methyl)piperazin-1-yl)methyl)-1-thioxoisoindolin-2-yl)piperidine-2,6-dione]	20 to 30%	60 to 80%	A (0% ≤ substrate protein remaining % ≤ 80%)	B (80%< substrate protein remaining %≤ 100%)	A (0% ≤ substrate protein remaining % ≤ 80%)	A (0% ≤ substrate protein remaining % ≤ 80%)	B (80%< substrate protein remaining %≤ 100%)	A (0% ≤ substrate protein remaining % ≤ 80%)	30 to 40%	80 to 100%	10 to 20%	80 to 100%	10 to 20%	80 to 100%	10 to 20%	80 to 100%	10 to 20%	80 to 100%	10 to 20%	60 to 70%	inhibition at 0.5 µM [11]: 60 to 70%; inhibition at 0.01 µM [15]: 40 to 50%; inhibition at 0.5 µM [15]: 80 to 100%
Cc1cc(C2=CCN(Cc3ccc4c(c3)CN(C3CCC(=O)NC3=O)C4=S)CC2)cs1 (stereo not shown) [GT-08327, 3-(5-((4-(5-methylthiophen-3-yl)-3,6-dihydropyridin-1(2H)-yl)methyl)-1-thioxoisoindolin-2-yl)piperidine-2,6-dione]	53 to 60%	80 to 100%	A (0% ≤ substrate protein remaining % ≤ 80%)	A (0% ≤ substrate protein remaining % ≤ 80%)	A (0% ≤ substrate protein remaining % ≤ 80%)	A (0% ≤ substrate protein remaining % ≤ 80%)	A (0% ≤ substrate protein remaining % ≤ 80%)	A (0% ≤ substrate protein remaining % ≤ 80%)	40 to 60%	80 to 100%	30 to 40%	80 to 100%	30 to 40%	80 to 100%	10 to 20%	80 to 100%	20 to 30%	80 to 100%	10 to 20%	80 to 100%	inhibition at 0.01 µM [11]: 0 to 5%; inhibition at 0.5 µM [11]: 70 to 80%; inhibition at 0.01 µM [15]: 40 to 50%; inhibition at 0.5 µM [15]: 80 to 100%
Cc1cc(C2CCN(Cc3ccc4c(c3)CN(C3CCC(=O)NC3=O)C4=S)CC2)cs1 (stereo not shown) [GT-08325, 3-(5-((4-(5-methylthiophen-3-yl)piperidin-1-yl)methyl)-1-thioxoisoindolin-2-yl)piperidine-2,6-dione]	60 to 80%	80 to 100%	B (80%< substrate protein remaining %≤ 100%)	B (80%< substrate protein remaining %≤ 100%)	A (0% ≤ substrate protein remaining % ≤ 80%)	B (80%< substrate protein remaining %≤ 100%)	A (0% ≤ substrate protein remaining % ≤ 80%)	A (0% ≤ substrate protein remaining % ≤ 80%)	60 to 80%	100 to 110%	0 to 5%	80 to 100%	10 to 20%	80 to 100%	10 to 20%	80 to 100%	-5 to 0%	70 to 80%	20 to 30%	60 to 70%	inhibition at 0.01 µM [15]: 30 to 40%; inhibition at 0.5 µM [15]: 80 to 100%
